Tests used:
[1] = system: erythroid (red blood cell) colonies; assay: Experiment 5: growth of erythroid colonies from cord blood with standard growth factors (EPO and Il-3); format: cell-based, human
Method: In an additional study, comparative growth of erythroid (red blood cell) colonies cultured from cord blood samples was evaluated with the addition of growth factors alone or with the addition of test compounds.
Control and test cultures were established from the same samples with the same growth factors (EPO and II-3) with addition of test compounds. The compounds tested were M, P, R, T, W, Y, Z, AI, F and 3-(5-chlorothien-3-yl)acrylic acid. Two compounds previously shown as positive proliferative agents were included for comparison.

Erythroid colonies = assay: Experiment 6: erythroid colony growth from sickle cell patients receiving hydroxyurea; format: cell-based, human
Method: Erythroid colonies from the peripheral blood of 4 patients with sickle cell disease who were receiving treatment with Hydroxyurea (HU), a chemotherapeutic agent which suppresses marrow growth and reduces red blood cell production, were cultured alone or with added test compounds M, P, 2-methyl-1-benzofuran-4-carboxylic acid, V, W, Y (racemic mixture) or AI. L-arginine was added as a neutral control, and had no effect on numbers of erythroid colonies.
2-methyl-1-benzofuran-4-carboxylic acid and compound V require additional samples for statistical evaluation, but had positive effects in 3/3 different patients' cultures. These findings indicate that the test compounds stimulate erythroid cell production particularly in conditions of anemia and bone marrow suppression.

γ-globin = details: cited from earlier work

Substance: arginine butyrate
- erythroid colony numbers [1]: reduced colony numbers
- effect on numbers of erythroid colonies compared to control (Erythroid colonies): decreased numbers of erythroid colonies
- % Change from Control (erythroid colony growth) (Erythroid colonies; micromolar: L-arginine 150, AB 100, PA 100, M 1, P 100, 2-methyl-1-benzofuran-4-carboxylic acid 10, V 10, W 40, Y racemic mix 50, Al 30, Hydroxyurea 20): −29%
- Number with effects/No effect (Erythroid colonies; patients' cultures, same concentrations as % Change): 5/6
- levels required in vitro (γ-globin): 100 µM
